# According to patent US6699983B1, “Integrin-linked kinase and its uses” (Sunnybrook Health Sciences Centre, priority 1995, dated 2004):
# What was measured:
# ILK [1] = experiment: ILK activation by insulin in IEC-18 cells (immune complex kinase assay, MBP substrate); assay type: cell-based, rat; conditions: quiescent, serum-starved IEC-18 cells
# Protocol: Assessment of ILK activation by insulin on IEC-18 cells. IEC 18 cells are rat colon epithelial cells that are cultured routinely in α-MEM medium supplemented with insulin (10 mg/liter), glucose 3.6 g/liter, and 5% FCS. When IEC 18 cells are grown to 80% confluence, they are serum starved for 18 hours prior to activation by insulin. Before addition of insulin, media are removed and 4 ml of α-MEM+insulin 6 μM is added to the 100 mm dishes. P13 kinase inhibitors such as LY294002 at 50 μM or wortmannin at 200 nM are added optionally to block P13 kinase dependent ILK activation. At the designated times, dishes are washed 3× with ice cold PBS and cells are lysed in 500 μl lysis buffer: 150 mM NaCI, 1% NP-40, 0.5% sodium deoxycholate, 50 mM Hepes pH 7.5, 10 μg/ml leupeptin, 1 mM PMSF, 2.5 μl aprotinin/mi lysis buffer, NaF 5 mM, Sodium vanadate 1 mM. After assessment of protein concentration by Bradford assay, 500 μl samples containing 200 μg of proteins are incubated for 2 hrs at 4° C. with 20 μl of Protein A-Sepharose to preadsorb the non specific kinases. The lysate is then incubated overnight with 2 μg of rabbit anti ILK antiserum at 4° C. under rotation.
# The immunocomplexes are then captured by incubating the lysate with 15 μl of Protein A Sepharose for 2 hrs at 4° C. […] Phosphorylation level of MBP is assessed by phosphorimager analysis or exposure to an X ray film.
# ILK [2] = biological target: T1, ILK (Homo sapiens, UniProt Q13418); experiment: Regulation of ILK kinase by phosphoinositides in vitro (ILK5-GST, MBP substrate); assay type: biochemical; conditions: lipid vesicles with phosphatidylserine and phosphatidylcholine, 30° C.
# T1 construct: GST
# T1 sequence (Q13418 1-452): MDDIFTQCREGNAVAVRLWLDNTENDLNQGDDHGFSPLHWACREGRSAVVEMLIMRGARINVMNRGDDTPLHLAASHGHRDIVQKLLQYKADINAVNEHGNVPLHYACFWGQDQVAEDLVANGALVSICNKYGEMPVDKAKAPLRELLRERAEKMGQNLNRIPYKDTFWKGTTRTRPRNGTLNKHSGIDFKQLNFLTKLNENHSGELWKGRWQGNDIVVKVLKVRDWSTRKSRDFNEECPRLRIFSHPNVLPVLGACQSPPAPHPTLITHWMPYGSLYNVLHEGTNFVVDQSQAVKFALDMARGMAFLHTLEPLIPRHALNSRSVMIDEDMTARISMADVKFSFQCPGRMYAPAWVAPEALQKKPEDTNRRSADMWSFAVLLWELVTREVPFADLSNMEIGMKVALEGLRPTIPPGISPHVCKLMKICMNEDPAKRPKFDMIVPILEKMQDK
# Protocol: Assessment of regulation of ILK kinase by phosphoinositides. Ptdlns(3)P, Ptdins(3,4)P2 and Ptdlns(3,4,5)P3 were dried under nitrogen and resuspended at 0.1 mM in Hepes 10 mM, pH 7. 0 with phosphatidylserineand phosphatidylcholine, both at 1 mM. The lipid suspensions were vortexed and further sonicated for 20 min in order to generate unilamellar vesicles. 11 μl of ILK5-GST in kinase buffer were combined to 4 μl of lipids and 25 μl of kinase reaction solution containing 2.5 μl of MBP and 5 μCi of γ^32 P-ATP. The reaction proceeded for […] at 30° C. The reaction was stopped by adding an equal volume of 2× sample buffer. The samples were run on a 12% non reducing SDS-PAGE gel.
ILK activity in vitro in the presence of phosphoinositide (ILK [2]),Substance,stimulation of ILK activity (ILK [1])
,insulin,rapidly stimulated
stimulated,"phosphatidylinositol (3,4,5) trisphosphate [Ptdlns(3,4,5)P3]",
not,phosphatidylinositol(3) monophosphate [Ptdlns(3)P],
not,"phosphatidylinositol(3,4) bisphosphate [Ptdlns(3,4)P2]",
